Results published in patent US7820693B2, “1-(2H)-isoquinolone derivative” (Chugai Seiyaku Kabushiki Kaisha, priority 2005, dated 2010).

Columns and labels:
[1] = test system: human colon cancer cell line HCT116; assay: Measurement of cell growth inhibitory activity (Cell Counting Kit-8); format: cell-based; conditions: HCT-116, 96 h, HCT116, 2,000 cells/well, cultured 4 days
Procedure: Cancer cell growth inhibitory activity was measured using Cell Counting Kit-8 manufactured by Dojindo Laboratories. The human colon cancer cell line HCT116 obtained from American Type Culture Collection (Virginia, U.S.A) was inoculated in a 96-well culture plate at a concentration of 2,000 cells/well. Thereafter, a certain concentration of compound was added thereto, and the obtained mixture was then cultured at 37° C. in 5% CO2, 95% air for 4 days. On the 4th day of the culture, a Cell Counting Kit-8 solution was added to the culture product, and absorbance (measurement wavelength: 450 nm; reference wavelength: 615 nm) was measured in accordance with protocols included with the kit. Thereafter, 50% growth inhibitory concentration (IC50) was calculated.

[2] = test system: human colon cancer cell line HCT116 transplanted into the inguinal subcutis; assay: Measurement of antitumor effect in tumor-bearing mouse; format: in vivo, BALB/c nude mouse; conditions: HCT116 xenograft, 300 mg/kg orally, twice (day 0 and 7 days after), vs control group
Procedure: A representative example of the compound group of the present invention was measured in terms of antitumor effect.
Such antitumor effect was examined, using a tumor-bearing mouse produced by transplanting the human colon cancer cell line HCT116 obtained from American Type Culture Collection (Virginia, U.S.A) into the inguinal subcutis of a BALB/c nude mouse purchased from Charles River Laboratories Japan, Inc. The purchased nude mouse was quarantined for 1 week. Thereafter, approximately 5×10^6 HCT116 cells were transplanted subcutaneously. When the size of a tumor thereof became 200 mm^3, the mouse was subjected to the present experiment.
Each compound was suspended in a solution to be administered, and 0.2 ml of the solution was orally administered. Such administration was carried out twice in total, that is, on the initiation date of administration and 7 days after the first administration. The antitumor effect was calculated as a tumor growth inhibition by comparing the agent-treated group with a control group in terms of tumor growth, on 14 days after the initiation date of administration. Tumor growth inhibition (TGI)=(1−the tumor growth amount of agent-treated group/the tumor growth amount of control group)×100(%) The results are shown in Table 7.

[3] = Measurement of solubility (HPLC of filtrate); conditions: for solubility at 2 h: thermodynamic from solid
Procedure: Measurement was carried out by preparing a four-point calibration curve (4,000 μM, 1,000 μM, 250 μM, and 31.3 μM) according to the internal standard method. A sample solution (100% DMSO) was freeze-dried, and each solution was then added thereto. The obtained mixture was stirred for 2 hours. Thereafter, a solution in which the sample had been dissolved was filtrated, and the filtrate was then analyzed with an analyzer. As an analysis method, the filtrate was measured by HPLC (HPLC). As dissolving solutions, a saline solution or a 50 mM sodium citrate-HCl buffer (pH 4.0) solution were used.

[4] = 50 mM sodium citrate-HCl buffer (pH 4.0), pH 4, aqueous buffer

| IC50 [1] | Compound | other results |
| --- | --- | --- |
| 200 nM | O=C1C=C(OCc2ccccc2)CN1c1ccc2cc(-c3ccccc3C(F)(F)F)[nH]c(=O)c2c1 [Example 8, 7-(4-benzyloxy-2-oxo-2,5-dihydropyrrol-1-yl)-3-(2-trifluoromethylphenyl)-2H-isoquinolin-1-one] | – |
| 530 nM | O=C1N(CCO)CCN1c1ccc2cc(-c3ccccc3C(F)(F)F)[nH]c(=O)c2c1 [Example 9, 7-[3-(2-hydroxyethyl)-2-oxoimidazolidin-1-yl]-3-(2-trifluoromethylphenyl)-2H-isoquinolin-1-one] | – |
| 450 nM | O=C(OC[C@@H]1COC(=O)N1c1ccc2cc(-c3ccccc3C(F)(F)F)[nH]c(=O)c2c1)c1ccccc1 [Example 11, (R)-2-oxo-3-[1-oxo-3-(2-trifluoromethylphenyl)-1,2-dihydroisoquinolin-7-yl]oxazolidin-4-ylmethyl benzoate] | – |
| 300 nM | O=C1O[C@@H](CO)CN1c1ccc2cc(-c3ccccc3C(F)(F)F)[nH]c(=O)c2c1 [Example 14, 7-((R)-5-hydroxymethyl-2-oxooxazolidin-3-yl)-3-(2-trifluoromethylphenyl)-2H-isoquinolin-1-one] | TGI (%) obtained 14 days after administration [2]: 113% |
| 110 nM | O=C1CCCN1c1ccc2cc(-c3ccccc3C(F)(F)F)[nH]c(=O)c2c1 [Example 15, 7-(2-oxopyrrolidin-1-yl)-3-(2-trifluoromethylphenyl)-2H-isoquinolin-1-one] | – |
| 21 nM | O=C1O[C@H](CO)CN1c1ccc2cc(-c3ccccc3OC(F)(F)F)[nH]c(=O)c2c1 [Example 27, 7-((S)-5-hydroxymethyl-2-oxooxazolidin-3-yl)-3-(2-trifluoromethoxyphenyl)-2H-isoquinolin-1-one] | – |
| 91 nM | O=C1OC(CCO)CN1c1ccc2cc(-c3ccccc3C(F)(F)F)[nH]c(=O)c2c1 (stereo not shown) [Example 29, 7-[5-(2-hydroxyethyl)-2-oxooxazolidin-3-yl]-3-(2-trifluoromethylphenyl)-2H-isoquinolin-1-one] | – |
| 530 nM | CC(=O)NCC1CN(c2ccc3cc(-c4ccccc4C(F)(F)F)[nH]c(=O)c3c2)C(=O)O1 (stereo not shown) [Example 32, N-{2-oxo-3-[1-oxo-3-(2-trifluoromethylphenyl)-1,2-dihydroisoquinolin-7-yl]oxazolidin-5-ylmethyl}acetamide] | – |
| 290 nM | O=C1OC(CN2CCOCC2)CN1c1ccc2cc(-c3ccccc3C(F)(F)F)[nH]c(=O)c2c1 (stereo not shown) [Example 33, 7-(5-morpholin-4-ylmethyl-2-oxooxazolidin-3-yl)-3-(2-trifluoromethylphenyl)-2H-isoquinolin-1-one] | – |
| 960 nM | CN1C(=O)N(c2ccc3cc(-c4ccccc4C(F)(F)F)[nH]c(=O)c3c2)C[C@@H]1COCc1ccccc1 [Example 35, 7-((R)-4-benzyloxymethyl-3-methyl-2-oxoimidazolidin-1-yl)-3-(2-trifluoromethylphenyl)-2H-isoquinolin-1-one] | – |
| 310 nM | CN1C(=O)N(c2ccc3cc(-c4ccccc4C(F)(F)F)[nH]c(=O)c3c2)C[C@@H]1CO [Example 36, 7-((R)-4-hydroxymethyl-3-methyl-2-oxoimidazolidin-1-yl)-3-(2-trifluoromethylphenyl)-2H-isoquinolin-1-one] | – |
| – | CC(C)[C@H](N)C(=O)OC[C@H]1CN(c2ccc3cc(-c4ccccc4C(F)(F)F)[nH]c(=O)c3c2)C(=O)O1.Cl [Example B9, (R)-2-oxo-3-[1-oxo-3-(2-trifluoromethylphenyl)-1,2-dihydroisoquinolin-7-yl]oxazolidin-5-ylmethyl(S)-2-amino-3-methyl-butanoate hydrochloride] | solubility at 2 h [3, 4]: > 2000 µM |
| – | CNCC(=O)OC[C@@H]1CN(c2ccc3cc(-c4ccccc4C(F)(F)F)[nH]c(=O)c3c2)C(=O)O1.Cl [Example B20, (S)-2-oxo-3-[1-oxo-3-(2-trifluoromethylphenyl)-1,2-dihydroisoquinolin-7-yl]oxazolidin-5-ylmethyl methylaminoacetate hydrochloride] | solubility at 2 h [3, 4]: > 2000 µM |
| – | CC(C)(OC(=O)c1ccccc1C(=O)[O-])[C@@H]1CN(c2ccc3cc(-c4ccccc4C(F)(F)F)[nH]c(=O)c3c2)C(=O)O1.[Na+] [Example C6] | Solubility ([3]; no asterisk: saline solution, stirred 2 hours): >2000 µM |
| – | O=C(OCCOCCOCCOCCOCCOCCO)OC[C@@H]1CN(c2ccc3cc(-c4ccccc4C(F)(F)F)[nH]c(=O)c3c2)C(=O)O1 [Example C45, 2-[2-(2-{2-[2-(2-hydroxyethoxy)ethoxy]ethoxy}ethoxy)ethoxy]ethyl carbonate (S)-2-oxo-3-[1-oxo-3-(2-trifluoromethylphenyl)-1,2-dihydroisoquinolin-7-yl]oxazolidin-5-ylmethyl ester] | solubility at 2 h ([3]; saline solution, saline or isotonic): > 2000 µM |
